Literature values as cited in patent US20250303004A1, “RADIOPHARMACEUTICAL COMPOSITIONS FOR LOW TOXICITY ACTINIUM IN TARGETED RADIONUCLIDE THERAPY” (Curium US LLC, priority 2021, published 2025).
Entries after “also recorded” stand apart in the source; their conditions may differ. Read-outs that look alike come from different tables or passages of the source.

Legend:
cerebral metastases = conditions: in vivo; cited from earlier work
patients with mCRPC = conditions: 26 patients, cited from earlier work; for Biochemical response PSA50 (PSA decline of >50%): all progressed after ^177Lu-PSMA
[1] = Feuerecker 2020, 4-8 MBq per cycle

For `O=C(O)CC[C@H](NC(=O)N[C@@H](CCCCNC(=O)[C@H](Cc1ccc2ccccc2c1)NC(=O)[C@H]1CC[C@H](CNC(=O)CN2CCN(CC(=O)O)CCN(CC(=O)O)CCN(CC(=O)O)CC2)CC1)C(=O)O)C(=O)O` [^225Ac-PSMA-617, metal not drawn], the blood-brain barrier crossing (cerebral metastases) is listed as “crosses the blood-brain barrier”, the “effect on cerebral metastases” value (cerebral metastases) is listed as “significant regression of cerebral metastases” and the median overall survival (patients with mCRPC; 95% CI 4.5-12.1 months) is listed as 7.7 months. For the same compound, the complete response (patients with mCRPC) was “no complete response was seen”, the “patients refusing any further treatment due to severe xerostomia” value (patients with mCRPC) was 23% and the “patients with any PSA reduction” value (patients with mCRPC) was 88%. For the same compound, the xerostomia (patients with mCRPC) was “Mild irreversible xerostomia was seen in all patients”, the “patients with treatment discontinued to prevent further deterioration of marrow toxicity” value (patients with mCRPC; pre-existing marrow toxicity) was 8% and the “Biochemical response PSA50 (PSA decline of >50%)” value (patients with mCRPC; [1]) was 65%. The “Biochemical response PSA50 (PSA decline of >50%)” value (patients with mCRPC; Feuerecker 2020, 4-8 MBq per cycle, listed as PSMA-617) was 65%, the Major toxicity (patients with mCRPC; [1]) was “xerostomia; also recorded: Hb↓, WBC↓, plt↓” and the OS (patients with mCRPC; [1]) was 7.7 mo. For the same compound, the PFS (patients with mCRPC; [1]) was 3.5 mo.
